Measurements as given in ChEMBL document CHEMBL3046672, “Synthesis and bioevaluation of Schiff and Mannich bases of isatin derivatives with 4-amino-5-benzyl-2,4-dihydro-3H-1,2,4-triazole-3-thione” (2012).

System: Pseudomonas aeruginosa
Assay: Antibacterial activity against Pseudomonas aeruginosa at 50 ug/ml
Format: functional
Conditions: read-out: DIZ

| Structure (SMILES) | zone of inhibition at 50 µg/mL [mm] |
| --- | --- |
| CCN(CC)CN1C(=O)/C(=N\n2c(Cc3ccccc3)n[nH]c2=S)c2ccccc21 | 9 |
| O=C1/C(=N\n2c(Cc3ccccc3)n[nH]c2=S)c2ccccc2N1CN1CCOCC1 | 9 |
| O=C1Nc2ccc(Br)cc2/C1=N/n1c(Cc2ccccc2)n[nH]c1=S | 10 |

System: Pseudomonas aeruginosa
Assay: Antibacterial activity against Pseudomonas aeruginosa at 100 ug/ml
Format: functional
Conditions: read-out: DIZ

| Structure (SMILES) | zone of inhibition at 100 µg/mL [mm] |
| --- | --- |
| CCN(CC)CN1C(=O)/C(=N\n2c(Cc3ccccc3)n[nH]c2=S)c2ccccc21 | 13 |
| O=C1/C(=N\n2c(Cc3ccccc3)n[nH]c2=S)c2ccccc2N1CN1CCOCC1 | 12 |
| O=C1Nc2ccc(Br)cc2/C1=N/n1c(Cc2ccccc2)n[nH]c1=S | 15 |

System: Pseudomonas aeruginosa
Assay: Antibacterial activity against Pseudomonas aeruginosa at 200 ug/ml
Format: functional
Conditions: read-out: DIZ

| Structure (SMILES) | zone of inhibition at 200 µg/mL [mm] |
| --- | --- |
| CCN(CC)CN1C(=O)/C(=N\n2c(Cc3ccccc3)n[nH]c2=S)c2ccccc21 | 20 |
| O=C1/C(=N\n2c(Cc3ccccc3)n[nH]c2=S)c2ccccc2N1CN1CCOCC1 | 22 |
| O=C1Nc2ccc(Br)cc2/C1=N/n1c(Cc2ccccc2)n[nH]c1=S | 25 |

System: Escherichia coli
Assay: Antibacterial activity against Escherichia coli at 50 ug/ml
Format: functional
Conditions: read-out: DIZ

| Structure (SMILES) | zone of inhibition at 50 µg/mL [mm] |
| --- | --- |
| CCN(CC)CN1C(=O)/C(=N\n2c(Cc3ccccc3)n[nH]c2=S)c2ccccc21 | 9 |
| O=C1/C(=N\n2c(Cc3ccccc3)n[nH]c2=S)c2ccccc2N1CN1CCOCC1 | 9 |
| O=C1Nc2ccc(Br)cc2/C1=N/n1c(Cc2ccccc2)n[nH]c1=S | 11 |

System: Escherichia coli
Assay: Antibacterial activity against Escherichia coli at 100 ug/ml
Format: functional
Conditions: read-out: DIZ

| Structure (SMILES) | zone of inhibition at 100 µg/mL [mm] |
| --- | --- |
| CCN(CC)CN1C(=O)/C(=N\n2c(Cc3ccccc3)n[nH]c2=S)c2ccccc21 | 15 |
| O=C1/C(=N\n2c(Cc3ccccc3)n[nH]c2=S)c2ccccc2N1CN1CCOCC1 | 15 |
| O=C1Nc2ccc(Br)cc2/C1=N/n1c(Cc2ccccc2)n[nH]c1=S | 17 |

System: Escherichia coli
Assay: Antibacterial activity against Escherichia coli at 200 ug/ml
Format: functional
Conditions: read-out: DIZ

| Structure (SMILES) | zone of inhibition at 200 µg/mL [mm] |
| --- | --- |
| CCN(CC)CN1C(=O)/C(=N\n2c(Cc3ccccc3)n[nH]c2=S)c2ccccc21 | 22 |
| O=C1/C(=N\n2c(Cc3ccccc3)n[nH]c2=S)c2ccccc2N1CN1CCOCC1 | 23 |
| O=C1Nc2ccc(Br)cc2/C1=N/n1c(Cc2ccccc2)n[nH]c1=S | 27 |

System: Staphylococcus aureus
Assay: Antibacterial activity against Staphylococcus aureus at 200 ug/ml
Format: functional
Conditions: read-out: DIZ

| Structure (SMILES) | zone of inhibition at 200 µg/mL [mm] |
| --- | --- |
| CCN(CC)CN1C(=O)/C(=N\n2c(Cc3ccccc3)n[nH]c2=S)c2ccccc21 | 23 |
| O=C1/C(=N\n2c(Cc3ccccc3)n[nH]c2=S)c2ccccc2N1CN1CCOCC1 | 19 |
| O=C1Nc2ccc(Br)cc2/C1=N/n1c(Cc2ccccc2)n[nH]c1=S | 20 |

System: Staphylococcus aureus
Assay: Antibacterial activity against Staphylococcus aureus at 100 ug/ml
Format: functional
Conditions: read-out: DIZ

| Structure (SMILES) | zone of inhibition at 100 µg/mL [mm] |
| --- | --- |
| CCN(CC)CN1C(=O)/C(=N\n2c(Cc3ccccc3)n[nH]c2=S)c2ccccc21 | 16 |
| O=C1/C(=N\n2c(Cc3ccccc3)n[nH]c2=S)c2ccccc2N1CN1CCOCC1 | 15 |
| O=C1Nc2ccc(Br)cc2/C1=N/n1c(Cc2ccccc2)n[nH]c1=S | 12 |

System: Aspergillus niger
Assay: Antifungal activity against Aspergillus niger at 200 ug/ml
Format: functional
Conditions: read-out: DIZ

| Structure (SMILES) | zone of inhibition at 200 µg/mL [mm] |
| --- | --- |
| CCN(CC)CN1C(=O)/C(=N\n2c(Cc3ccccc3)n[nH]c2=S)c2ccccc21 | 13 |
| O=C1/C(=N\n2c(Cc3ccccc3)n[nH]c2=S)c2ccccc2N1CN1CCOCC1 | 12 |
| O=C1Nc2ccc(Br)cc2/C1=N/n1c(Cc2ccccc2)n[nH]c1=S | 14 |

System: Staphylococcus aureus
Assay: Antibacterial activity against Staphylococcus aureus at 50 ug/ml
Format: functional
Conditions: read-out: DIZ

| Structure (SMILES) | zone of inhibition at 50 µg/mL [mm] |
| --- | --- |
| CCN(CC)CN1C(=O)/C(=N\n2c(Cc3ccccc3)n[nH]c2=S)c2ccccc21 | 11 |
| O=C1/C(=N\n2c(Cc3ccccc3)n[nH]c2=S)c2ccccc2N1CN1CCOCC1 | 10 |
| O=C1Nc2ccc(Br)cc2/C1=N/n1c(Cc2ccccc2)n[nH]c1=S | 9 |

System: Bacillus subtilis
Assay: Antibacterial activity against Bacillus subtilis at 200 ug/ml
Format: functional
Conditions: read-out: DIZ

| Structure (SMILES) | zone of inhibition at 200 µg/mL [mm] |
| --- | --- |
| CCN(CC)CN1C(=O)/C(=N\n2c(Cc3ccccc3)n[nH]c2=S)c2ccccc21 | 20 |
| O=C1/C(=N\n2c(Cc3ccccc3)n[nH]c2=S)c2ccccc2N1CN1CCOCC1 | 20 |
| O=C1Nc2ccc(Br)cc2/C1=N/n1c(Cc2ccccc2)n[nH]c1=S | 20 |

System: Bacillus subtilis
Assay: Antibacterial activity against Bacillus subtilis at 100 ug/ml
Format: functional
Conditions: read-out: DIZ

| Structure (SMILES) | zone of inhibition at 100 µg/mL [mm] |
| --- | --- |
| CCN(CC)CN1C(=O)/C(=N\n2c(Cc3ccccc3)n[nH]c2=S)c2ccccc21 | 13 |
| O=C1/C(=N\n2c(Cc3ccccc3)n[nH]c2=S)c2ccccc2N1CN1CCOCC1 | 13 |
| O=C1Nc2ccc(Br)cc2/C1=N/n1c(Cc2ccccc2)n[nH]c1=S | 15 |

System: Bacillus subtilis
Assay: Antibacterial activity against Bacillus subtilis at 50 ug/ml
Format: functional
Conditions: read-out: DIZ

| Structure (SMILES) | zone of inhibition at 50 µg/mL [mm] |
| --- | --- |
| CCN(CC)CN1C(=O)/C(=N\n2c(Cc3ccccc3)n[nH]c2=S)c2ccccc21 | 9 |
| O=C1/C(=N\n2c(Cc3ccccc3)n[nH]c2=S)c2ccccc2N1CN1CCOCC1 | 9 |
| O=C1Nc2ccc(Br)cc2/C1=N/n1c(Cc2ccccc2)n[nH]c1=S | 9 |

System: Candida albicans
Assay: Antifungal activity against Candida albicans at 200 ug/ml
Format: functional
Conditions: read-out: DIZ

| Structure (SMILES) | zone of inhibition at 200 µg/mL [mm] |
| --- | --- |
| CCN(CC)CN1C(=O)/C(=N\n2c(Cc3ccccc3)n[nH]c2=S)c2ccccc21 | 17 |
| O=C1/C(=N\n2c(Cc3ccccc3)n[nH]c2=S)c2ccccc2N1CN1CCOCC1 | 15 |
| O=C1Nc2ccc(Br)cc2/C1=N/n1c(Cc2ccccc2)n[nH]c1=S | 17 |

System: Candida albicans
Assay: Antifungal activity against Candida albicans at 100 ug/ml
Format: functional
Conditions: read-out: DIZ

| Structure (SMILES) | zone of inhibition at 100 µg/mL [mm] |
| --- | --- |
| CCN(CC)CN1C(=O)/C(=N\n2c(Cc3ccccc3)n[nH]c2=S)c2ccccc21 | 10 |
| O=C1/C(=N\n2c(Cc3ccccc3)n[nH]c2=S)c2ccccc2N1CN1CCOCC1 | 10 |
| O=C1Nc2ccc(Br)cc2/C1=N/n1c(Cc2ccccc2)n[nH]c1=S | 11 |

System: Aspergillus niger
Assay: Antifungal activity against Aspergillus niger at 100 ug/ml
Format: functional
Conditions: read-out: DIZ

| Structure (SMILES) | zone of inhibition at 100 µg/mL [mm] |
| --- | --- |
| CCN(CC)CN1C(=O)/C(=N\n2c(Cc3ccccc3)n[nH]c2=S)c2ccccc21 | 9 |
| O=C1/C(=N\n2c(Cc3ccccc3)n[nH]c2=S)c2ccccc2N1CN1CCOCC1 | 9 |
| O=C1Nc2ccc(Br)cc2/C1=N/n1c(Cc2ccccc2)n[nH]c1=S | 10 |
